Measurements reported in patent US20230117034A1, “PYRAZOLOTRIAZINES” (Bayer Aktiengesellschaft, priority 2019, published 2023).
pIC50: −log10 of the molar value. Read-outs that look alike come from different tables or passages of the source.

How the values were obtained:
CDK9/CycT1 = biological target: T1, CDK9/CycT1 (Homo sapiens, UniProt P50750); assay: CDK9/CycT1 high ATP kinase assay (TR-FRET, 2 mM ATP); assay type: biochemical; settings: 2 mM ATP (high ATP); median; read-out: CDK9/CyclinT1, 2 mM ATP (high ATP), IC50 (median)
T1 construct: Recombinant full-length His-tagged human CDK9 and CycT1; purchased Life Technologies PV4131; host or cells: insect cells
Outline: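 Full-length His-tagged human CDK9/CycT1 (insect cell, ~0.5 μg/mL) preincubated 15 min at 22 °C with compound in Tris pH 8.0, MgCl2, DTT buffer before reaction with biotinylated peptide substrate at high ATP (2 mM).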

[1] = test system: CAL-120, human breast adenocarcinoma cells; assay: Proliferation assay CAL-120 (crystal violet, 4 days); assay type: cell-based; settings: CAL-120 cells, median, read-out: Prolif-CAL-120, IC50-[mol/l] (median)
Outline: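 Crystal violet proliferation read-out after 4 days of compound exposure (0.01-10 µmol/L; solvent 0.1% DMSO). Extinction at 595 nm, set between zero-point (0%) and vehicle (100%), fitted with 4 parameters to give IC50.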

T1 sequence (P50750 whole entry): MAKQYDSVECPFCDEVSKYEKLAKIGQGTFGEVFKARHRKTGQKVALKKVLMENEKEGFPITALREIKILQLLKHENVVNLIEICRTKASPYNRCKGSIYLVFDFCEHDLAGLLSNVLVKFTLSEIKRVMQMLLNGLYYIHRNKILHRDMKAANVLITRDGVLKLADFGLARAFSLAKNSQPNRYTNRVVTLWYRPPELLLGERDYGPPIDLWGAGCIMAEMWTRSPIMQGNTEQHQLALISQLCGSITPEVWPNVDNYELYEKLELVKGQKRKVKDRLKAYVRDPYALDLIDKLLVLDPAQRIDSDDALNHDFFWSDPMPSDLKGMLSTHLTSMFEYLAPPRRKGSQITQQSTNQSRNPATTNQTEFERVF
T1 sequence (O60563 whole entry partner): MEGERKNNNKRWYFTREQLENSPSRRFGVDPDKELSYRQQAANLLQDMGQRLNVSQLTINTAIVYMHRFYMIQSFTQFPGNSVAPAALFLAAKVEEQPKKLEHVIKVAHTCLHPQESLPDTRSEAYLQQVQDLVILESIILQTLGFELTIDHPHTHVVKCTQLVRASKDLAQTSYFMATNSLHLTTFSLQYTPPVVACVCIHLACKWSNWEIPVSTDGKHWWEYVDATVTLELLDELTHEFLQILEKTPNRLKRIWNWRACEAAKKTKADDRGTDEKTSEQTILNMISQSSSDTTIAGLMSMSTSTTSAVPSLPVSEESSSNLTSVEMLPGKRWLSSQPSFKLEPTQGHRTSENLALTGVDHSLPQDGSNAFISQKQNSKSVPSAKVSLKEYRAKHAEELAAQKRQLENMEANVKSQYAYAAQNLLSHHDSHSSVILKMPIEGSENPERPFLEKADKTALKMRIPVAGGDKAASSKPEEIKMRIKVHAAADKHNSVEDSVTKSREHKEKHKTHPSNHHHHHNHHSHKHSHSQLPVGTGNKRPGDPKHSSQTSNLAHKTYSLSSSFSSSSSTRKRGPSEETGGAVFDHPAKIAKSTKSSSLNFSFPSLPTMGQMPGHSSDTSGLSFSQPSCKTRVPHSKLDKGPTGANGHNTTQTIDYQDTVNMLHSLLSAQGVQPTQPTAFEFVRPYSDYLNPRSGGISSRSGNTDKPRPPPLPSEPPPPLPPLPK

Row | SMILES | pIC50 (CDK9/CycT1) | pIC50 ([1]; Homo sapiens, CAL-120, 96 h) | pIC50 [1]
1 | Fc1ccc2[nH]c(CNc3nc(N4CCOCC4)nc4c(C5CC5(F)F)cnn34)nc2c1 (racemic) [Example 286, 8-[(1RS)-2,2-difluorocyclopropyl]-N-[(5-fluoro-1H-benzimidazol-2-yl)methyl]-2-(morpholin-4-yl)pyrazolo[1,5-a][1,3,5]triazin-4-amine] | < 4.70 | 7.68 | –
2 | Fc1ccc2[nH]c(CNc3nc(N4CCOCC4)nc4c(C5CC5(F)F)cnn34)nc2c1 (single isomer, unassigned) [Example 314, 8-[(1R or S)-2,2-difluorocyclopropyl]-N-[(5-fluoro-1H-benzimidazol-2-yl)methyl]-2-(morpholin-4-yl)pyrazolo[1,5-a][1,3,5]triazin-4-amine] | < 4.70 | 7.89 | –
3 | Fc1ccc2[nH]c(CNc3nc(N4CCOCC4)nc4c([C@@H]5CC5(F)F)cnn34)nc2c1 (single isomer, unassigned) [Example 315, 8-[(1R or S)-2,2-difluorocyclopropyl]-N-[(5-fluoro-1H-benzimidazol-2-yl)methyl]-2-(morpholin-4-yl)pyrazolo[1,5-a][1,3,5]triazin-4-amine] | < 4.70 | 7.42 | –
4 | Brc1cnn2c(NCc3nc4ccccc4[nH]3)nc(N3C[C@H]4CC[C@@H]3CN4)nc12 (single isomer, unassigned) [Example 316, N-[(1H-benzimidazol-2-yl)methyl]-8-bromo-2-{[1R or S-(1R*4R*)]-2,5-diazabicyclo[2.2.2]octan-2-yl}pyrazolo[1,5-a][1,3,5]triazin-4-amine] | 4.89 | 8.15 | –
5 | Brc1cnn2c(NCc3nc4cccnc4[nH]3)nc(N3CCNCC3)nc12.O=CO [Example 19, 8-bromo-N-[(3H-imidazo[4,5-b]pyridin-2-yl)methyl]-2-(piperazin-1-yl)pyrazolo[1,5-a][1,3,5]triazin-4-amine formic acid salt] | < 4.70 | – | –
6 | Cc1ccnc2[nH]c(CNc3nc(N4CCOCC4)nc4c(Br)cnn34)nc12 [Example 20, 8-bromo-N-[(7-methyl-3H-imidazo[4,5-b]pyridin-2-yl)methyl]-2-(morpholin-4-yl)pyrazolo[1,5-a][1,3,5]triazin-4-amine] | 5.04 | 7.85 | –
7 | Brc1cnn2c(NCc3nc4c([nH]3)CCCC4)nc(N3CCOCC3)nc12 [Example 21, 8-bromo-2-(morpholin-4-yl)-N-[(4,5,6,7-tetrahydro-1H-benzimidazol-2-yl)methyl]pyrazolo[1,5-a][1,3,5]triazin-4-amine] | < 4.70 | 6.79 | –
8 | Brc1cnn2c(NCc3nc4ccncc4[nH]3)nc(N3CCOCC3)nc12 [Example 22, 8-bromo-N-[(3H-imidazo[4,5-c]pyridin-2-yl)methyl]-2-(morpholin-4-yl)pyrazolo[1,5-a][1,3,5]triazin-4-amine] | < 4.74 | – | –
9 | Brc1cnn2c(NCc3ncc(-c4ccccc4)[nH]3)nc(N3CCOCC3)nc12 [Example 23, 8-bromo-2-(morpholin-4-yl)-N-[(5-phenyl-1H-imidazol-2-yl)methyl]pyrazolo[1,5-a][1,3,5]triazin-4-amine] | 5.49 | – | –
10 | Brc1cnn2c(NCc3nnc(-c4ccccc4)[nH]3)nc(N3CCOCC3)nc12 [Example 24, 8-bromo-2-(morpholin-4-yl)-N-[(5-phenyl-4H-1,2,4-triazol-3-yl)methyl]pyrazolo[1,5-a][1,3,5]triazin-4-amine] | 5.51 | 7.45 | –
11 | Fc1ccc2[nH]c(CNc3nc(N4CCOCC4)nc4c(Br)cnn34)nc2c1F [Example 25, 8-bromo-N-[(4,5-difluoro-1H-benzimidazol-2-yl)methyl]-2-(morpholin-4-yl)pyrazolo[1,5-a][1,3,5]triazin-4-amine] | 5.24 | 8.58 | –
12 | c1ccc2[nH]c(CNc3nc(N4CCOCC4)nc4c(C5CCCC5)cnn34)nc2c1 [Example 244, N-[(1H-benzimidazol-2-yl)methyl]-8-cyclopentyl-2-(morpholin-4-yl)pyrazolo[1,5-a][1,3,5]triazin-4-amine] | < 4.70 | 6.66 | –
13 | c1ccc2[nH]c(CNc3nc(N4CCNCC4)nc4c(C5CC5)cnn34)nc2c1 [Example 247, N-[(1H-benzimidazol-2-yl)methyl]-8-cyclopropyl-2-(piperazin-1-yl)pyrazolo[1,5-a][1,3,5]triazin-4-amine] | < 4.70 | 8.01 | –
14 | c1ccc2[nH]c(CNc3nc(N4C[C@@H]5CCCN[C@@H]5C4)nc4c(C5CC5)cnn34)nc2c1 [Example 249, N-[(1H-benzimidazol-2-yl)methyl]-8-cyclopropyl-2-[(4aS,7aS)-octahydro-6H-pyrrolo[3,4-b]pyridin-6-yl]pyrazolo[1,5-a][1,3,5]triazin-4-amine] | < 4.70 | 8.37 | –

Further lines, results first:

Row | pIC50 (CDK9/CycT1) | pIC50 ([1]; Homo sapiens, CAL-120, 96 h) | pIC50 [1] | SMILES
15 | < 4.70 | 7.19 | – | CN1CCN(c2nc(NCc3nc4ccccc4[nH]3)n3ncc(Br)c3n2)C(CO)C1 (single isomer, unassigned) [Example 280, [(2R or S)-1-(4-{[(1H-benzimidazol-2-yl)methyl]amino}-8-bromopyrazolo[1,5-a][1,3,5]triazin-2-yl)-4-methylpiperazin-2-yl]methanol]
16 | < 4.70 | 7.07 | – | C[C@@]1(O)CCN(c2nc(NCc3nc4ccccc4[nH]3)n3ncc(Br)c3n2)C1 (single isomer, unassigned) [Example 281, (3R or S)-1-(4-{[(1H-benzimidazol-2-yl)methyl]amino}-8-bromopyrazolo[1,5-a][1,3,5]triazin-2-yl)-3-methylpyrrolidin-3-ol]
17 | < 4.70 | 7.34 | – | CC1(O)CCN(c2nc(NCc3nc4ccccc4[nH]3)n3ncc(Br)c3n2)C1 (single isomer, unassigned) [Example 282, (3R or S)-1-(4-{[(1H-benzimidazol-2-yl)methyl]amino}-8-bromopyrazolo[1,5-a][1,3,5]triazin-2-yl)-3-methylpyrrolidin-3-ol]
18 | < 4.70 | – | 8.22 | CC1CN(C)CCN1c1nc(NCc2nc3ccccc3[nH]2)n2ncc(Br)c2n1 (single isomer, unassigned; enantiomer 1) [Example 260, N-(1H-benzimidazol-2-ylmethyl)-8-bromo-2-[(2R or S)-2,4-dimethylpiperazin-1-yl]pyrazolo[1,5-a][1,3,5]triazin-4-amine (Enantiomer 1)]
19 | < 4.70 | – | 7.41 | CC1CN(C)CCN1c1nc(NCc2nc3ccccc3[nH]2)n2ncc(Br)c2n1 (single isomer, unassigned; enantiomer 2) [Example 261, N-(1H-benzimidazol-2-ylmethyl)-8-bromo-2-[(2R or S)-2,4-dimethylpiperazin-1-yl]pyrazolo[1,5-a][1,3,5]triazin-4-amine (Enantiomer 2)]
20 | < 4.70 | 8.51 | – | N[C@H]1CCN(c2nc(NCc3nc4ccccc4[nH]3)n3ncc(Br)c3n2)C1 [Example 245, 2-[(3S)-3-aminopyrrolidin-1-yl]-N-[(1H-benzimidazol-2-yl)methyl]-8-bromopyrazolo[1,5-a][1,3,5]triazin-4-amine]
21 | < 4.70 | 7.92 | – | CN1CCN(c2nc(NCc3nc4ccccc4[nH]3)n3ncc(C4CC4)c3n2)CC1 [Example 246, N-[(1H-benzimidazol-2-yl)methyl]-8-cyclopropyl-2-(4-methylpiperazin-1-yl)pyrazolo[1,5-a][1,3,5]triazin-4-amine]
22 | < 4.70 | 8.50 | – | C[C@@H]1CN(c2nc(NCc3nc4ccccc4[nH]3)n3ncc(C4CC4)c3n2)C[C@H](C)N1 [Example 248, N-[(1H-benzimidazol-2-yl)methyl]-8-cyclopropyl-2-[(3R,5S)-3,5-dimethylpiperazin-1-yl]pyrazolo[1,5-a][1,3,5]triazin-4-amine]
23 | < 4.70 | 8.46 | – | N[C@@H]1CCN(c2nc(NCc3nc4ccccc4[nH]3)n3ncc(Br)c3n2)C1 [Example 250, 2-[(3R)-3-aminopyrrolidin-1-yl]-N-[(1H-benzimidazol-2-yl)methyl]-8-bromopyrazolo[1,5-a][1,3,5]triazin-4-amine]
24 | < 4.70 | 8.18 | – | N[C@@H]1CN(c2nc(NCc3nc4ccccc4[nH]3)n3ncc(Br)c3n2)CC12CC2 [Example 251, 2-[(7S)-7-amino-5-azaspiro[2.4]heptan-5-yl]-N-[(1H-benzimidazol-2-yl)methyl]-8-bromopyrazolo[1,5-a][1,3,5]triazin-4-amine]
25 | < 4.70 | 7.41 | – | CN[C@H]1CCN(c2nc(NCc3nc4ccccc4[nH]3)n3ncc(Br)c3n2)C1 [Example 252, N-[(1H-benzimidazol-2-yl)methyl]-8-bromo-2-[(3S)-3-(methylamino)pyrrolidin-1-yl]pyrazolo[1,5-a][1,3,5]triazin-4-amine]
26 | < 4.70 | 8.16 | – | CN[C@@H]1CCN(c2nc(NCc3nc4ccccc4[nH]3)n3ncc(Br)c3n2)C1 [Example 253, N-[(1H-benzimidazol-2-yl)methyl]-8-bromo-2-[(3R)-3-(methylamino)pyrrolidin-1-yl]pyrazolo[1,5-a][1,3,5]triazin-4-amine]
27 | < 4.70 | 7.06 | – | c1ccc2[nH]c(CNc3nc(N4C[C@@H]5C[C@H]4CO5)nc4c(C5CC5)cnn34)nc2c1 [Example 254, N-[(1H-benzimidazol-2-yl)methyl]-8-cyclopropyl-2-[(1S,4S)-2-oxa-5-azabicyclo[2.2.1]heptan-5-yl]pyrazolo[1,5-a][1,3,5]triazin-4-amine]
